Where two headings read alike, the source gives them in different places.
Key:
Aβ1-40 = test: Measurement of Aβ1-40 in culture medium of 7W WT APP751 CHO cells by ELISA; assay type: cell-based, Chinese hamster; settings: for activity at 5 µM: Cricetulus griseus, 5 μM test compound, CHO cells stably transfected with human APP751, culture medium, ELISA, control DMSO; for Aβ1-40 (% of control): CHO cells that overexpress APP751, zero = below the detection limit of the assay;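 on all read-outs here: 5 µM test compound but RI-coded compounds at 10 µM for 24 hours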
Aβ1-42 = test: Measurement of Aβ1-42 in culture medium of 7W WT APP751 CHO cells by ELISA; assay type: cell-based, Chinese hamster; settings: for activity at 5 µM: Cricetulus griseus, 5 μM test compound, CHO cells stably transfected with human APP751, culture medium, ELISA, control DMSO; for Aβ1-42 (% of control): CHO cells that overexpress APP751, zero = below the detection limit of the assay;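 on Aβ1-42 (% of control): 5 µM test compound but RI-coded compounds at 10 µM for 24 hours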
[1] = Table 1, 0 = no detectable amount
[2] = Table 1, 0 = no detectable amount, read-out: Aβ1-42 (% of control)

For `COc1cc(C2C(C(=O)OC3CCCCC3)=C(C)NC3=C2C(=O)CC(c2ccccc2)C3)ccc1O` (centres unmarked) [ST013387, cyclohexyl 4-(4-hydroxy-3-methoxyphenyl)-2-methyl-5-oxo-7-phenyl-1,4,6,7,8-pentahydroquinoline-3-carboxylate], the activity at 5 µM (Aβ1-40; [1]) was 40% and the activity at 5 µM (Aβ1-42; [2]) was 26.4%.

Compound `CC1(C)CC(=O)C2=C(C1)N(c1ccc(Br)cc1F)C(N)=C(C#N)C2c1ccc(Cl)cc1Cl` (centres unmarked) [ST052048, 2-amino-4-(2,4-dichlorophenyl)-1-(4-bromo-2-fluorophenyl)-7,7-dimethyl-5-oxo-1,4,6,7,8-pentahydroquinoline-3-carbonitrile] has an activity at 5 µM (Aβ1-40; [1]) of 58.9% and an activity at 5 µM (Aβ1-42; [2]) of 33%.

`COCCOC(=O)C1=C(C)NC2=C(C(=O)CCC2)C1c1cc(OC)c(OC)cc1Br` (centres unmarked) [ST052462, 2-methoxyethyl 4-(2-bromo-4,5-dimethoxyphenyl)-2-methyl-5-oxo-1,4,6,7,8-pentahydroquinoline-3-carboxylate] gave an activity at 5 µM (Aβ1-40; [1]) of 61.8% and an activity at 5 µM (Aβ1-42; [2]) of 94.3%.

Compound `CC1=C(C(=O)OCCc2ccccc2)C(c2ccccc2F)C2=C(CC(C)(C)CC2=O)N1` (centres unmarked) [ST052225, 2-phenylethyl 4-(2-fluorophenyl)-2,7,7-trimethyl-5-oxo-1,4,6,7,8-pentahydroquinoline-3-carboxylate] has an activity at 5 µM (Aβ1-40; [1]) of 37.7% and an activity at 5 µM (Aβ1-42; [2]) of 29.7%.

With `CCC(C)OC(=O)C1=C(C)NC2=C(C(=O)CC(c3ccc(Cl)cc3)C2)C1c1cc(OC)c(OC)c(OC)c1` (centres unmarked) [ST017091, methylpropyl 7-(4-chlorophenyl)-2-methyl-5-oxo-4-(3,4,5-trimethoxyphenyl)-1,4,6,7,8-pentahydroquinoline-3-carboxylate] the activity at 5 µM (Aβ1-40; [1]) was 65.7% and the activity at 5 µM (Aβ1-42; [2]) was 91%.

With `CC1=C(C(=O)Nc2ccccc2)C(c2cccs2)C(C#N)=C(SCC(=O)Nc2ccccc2C)N1` (centres unmarked) [ST050837, 2-[3-cyano-6-methyl-5-(N-phenylcarbamoyl)-4-(2-thienyl)(2-1,4-dihydropyridylthio)]-N-(2-methylphenyl)acetamide] the “Aβ1-40 (% of control)” value (Aβ1-40) was 95.44 % of control and the “Aβ1-42 (% of control)” value (Aβ1-42) was 41.29 % of control.

With `CC1=C(C(=O)OC2CCCCC2)C(c2ccc3c(c2)OCO3)C2=C(CC(C)(C)CC2=O)N1` (centres unmarked) [ST216920, cyclohexyl 4-(2H-benzo[3,4-d]1,3-dioxolen-5-yl)-2,7,7-trimethyl-5-oxo-1,4,6,7,8-pentahydroquinoline-3-carboxylate] the activity at 5 µM (Aβ1-40; [1]) was 1.4% and the activity at 5 µM (Aβ1-42; [2]) was 3.82%.

For `CC1=C(C(=O)OCC(C)C)C(c2cccc(Cl)c2)C2=C(CC(c3ccccc3)CC2=O)N1` (centres unmarked) [ST016969, 2-methylpropyl 4-(3-chlorophenyl)-2-methyl-5-oxo-7-phenyl-1,4,6,7,8-pentahydroquinoline-3-carboxylate], the activity at 5 µM (Aβ1-40; [1]) was 30.3% and the activity at 5 µM (Aβ1-42; [2]) was 60.2%.

For `CCOC(=O)C1=C(C)NC2=C(C(=O)CC(c3ccc(OC)cc3)C2)C1c1ccccc1F` (centres unmarked) [ST015256, ethyl 4-(2-fluorophenyl)-7-(4-methoxyphenyl)-2-methyl-5-oxo-1,4,6,7,8-pentahydroquinoline-3-carboxylate], the activity at 5 µM (Aβ1-40; [1]) was 69.8% and the activity at 5 µM (Aβ1-42; [2]) was 75.8%.

`COc1cc(Br)ccc1/C=c1\sc2n(c1=O)C(N)=C(C#N)C(c1ccc(Br)cc1OC)C=2C#N` (centres unmarked) [RI_94] was tested, and the “Aβ1-40 (% of control)” value (Aβ1-40) was 73.2 % of control and the “Aβ1-42 (% of control)” value (Aβ1-42) was 81.2 % of control.

`CC1=C(C(=O)OCCOc2ccccc2)C(c2cccc(Oc3ccccc3)c2)C2=C(CC(C)(C)CC2=O)N1` (centres unmarked) [ST015055, 2-phenoxyethyl 2,7,7-trimethyl-5-oxo-4-(3-phenoxyphenyl)-1,4,6,7,8-pentahydroquinoline-3-carboxylate] was tested, and the activity at 5 µM (Aβ1-40; [1]) was 13.6% and the activity at 5 µM (Aβ1-42; [2]) was 78.2%.

For `CC1=C(C(=O)OCCOc2ccccc2)C(c2ccc(F)cc2)C2=C(CCCC2=O)N1` (centres unmarked) [ST014891, 2-phenoxyethyl 4-(4-fluorophenyl)-2-methyl-5-oxo-1,4,6,7,8-pentahydroquinoline-3-carboxylate], the activity at 5 µM (Aβ1-40; [1]) was 51.8% and the activity at 5 µM (Aβ1-42; [2]) was 39.3%.

In the case of `CCOC(=O)C1=CN(c2cc(C)ccc2C)C=C(C(=O)OCC)C1c1cccc(OC)c1OC` [ST052450, ethyl 4-(2,3-dimethoxyphenyl)-1-(2,5-dimethylphenyl)-5-(ethoxycarbonyl)-1,4-dihydropyridine-3-carboxylate], the “Aβ1-40 (% of control)” value (Aβ1-40) is reported as 5.249 % of control and the “Aβ1-42 (% of control)” value (Aβ1-42) is reported as 12.04 % of control.

`COC(=O)C1=CN(Cc2ccc(F)cc2)C=C(C(=O)OC)C1c1ccc(Cl)cc1` [ST024836, methyl 4-(4-chlorophenyl)-1-[(4-fluorophenyl)methyl]-5-(methoxycarbonyl)-1,4-dihydropyridine-3-carboxylate] was tested, and the “Aβ1-40 (% of control)” value (Aβ1-40) was 26.41 % of control and the “Aβ1-42 (% of control)” value (Aβ1-42) was 82.55 % of control.

`CCOc1ccccc1C1C(C(=O)OCC(C)C)=C(C)NC2=C1C(=O)CC(c1ccc(Cl)cc1)C2` (centres unmarked) [ST017038, 2-methyipropyl 7-(4-chlorophenyl)-4-(2-ethoxyphenyl)-2-methyl-5-oxo-1,4,6,7,8-pentahydroquinoline-3-carboxylate] was tested, and the activity at 5 µM (Aβ1-40; [1]) was 42.7% and the activity at 5 µM (Aβ1-42; [2]) was 81.9%.

With `O=C(N=C1CC(c2ccccc2)N(c2ccncc2)CC1[N+](=O)[O-])Nc1cccnc1` (centres unmarked) [ST026819, 2-(5-nitro-2-phenyl-1-(4-pyridyl)(4-6-hydropyridylidene))-N-(3-pyridyl)-2-azaace tamide] the activity at 5 µM (Aβ1-40; Table 3) was 64.9% and the activity at 5 µM (Aβ1-42; Table 3, read-out: Aβ-42 (% of control)) was 57.8%.

In the case of `COc1ccc(C2C(C(=O)OC3CCCC3)=C(C)NC3=C2C(=O)CC(C)(C)C3)c(OC)c1OC` (centres unmarked) [ST013328, cyclopentyl 2,7,7-trimethyl-5-oxo-4-(2,3,4-trimethoxyphenyl)-1,4,6,7,8-pentahydroquinoline-3-carboxylate], the activity at 5 µM (Aβ1-40; [1]) is reported as 43.1% and the activity at 5 µM (Aβ1-42; [2]) is reported as 93.4%.

In the case of `COC(=O)C1=C(C)NC2=C(C(=O)CC(c3ccc(OC)cc3)C2)C1c1ccc(C)cc1` (centres unmarked) [ST013332, methyl 7-(4-methoxyphenyl)-2-methyl-4-(4-methylphenyl)-5-oxo-1,4,6,7,8-pentahydroquinoline-3-carboxylate], the activity at 5 µM (Aβ1-40; [1]) is reported as 45.1% and the activity at 5 µM (Aβ1-42; [2]) is reported as 68%.

Compound `COCCOC(=O)C1=C(C)NC2=C(C(=O)CC(c3ccccc3)C2)C1c1ccc([N+](=O)[O-])cc1` (centres unmarked) [ST017027, 2-methoxyethyl 2-methyl-4-(4-nitrophenyl)-5-oxo-7-phenyl-1,4,6,7,8-pentahydroquinoline-3-carboxylate] has an activity at 5 µM (Aβ1-40; [1]) of 35.1% and an activity at 5 µM (Aβ1-42; [2]) of 82.1%.

For `COC(=O)C1=C(N)n2c(s/c(=C/c3ccc(Cl)cc3Cl)c2=O)=C(C(=O)OC)C1c1ccc(Cl)cc1Cl` (centres unmarked) [ST011769, methyl 5-amino-7-(2,4-dichlorophenyl)-2-[(2,4-dichlorophenyl)methylene]-6-(methoxycarbonyl)-3-oxo-4,7-dihydro-1,3-thiazolidino[3,2-a]pyridine-8-carboxylate], the “Aβ1-40 (% of control)” value (Aβ1-40) was 42.3 % of control and the “Aβ1-42 (% of control)” value (Aβ1-42) was 71.56 % of control.

`CCCOC(=O)C1=C(C)NC2=C(C(=O)CC(c3ccccc3)C2)C1c1ccc(Cl)cc1Cl` (centres unmarked) [ST017293, propyl 4-(2,4-dichlorophenyl)-2-methyl-5-oxo-7-phenyl-1,4,6,7,8-pentahydroquinoline-3-carboxylate] gave an activity at 5 µM (Aβ1-40; [1]) of 57.7% and an activity at 5 µM (Aβ1-42; [2]) of 95.2%.

In the case of `CSC1=C(C#N)C(c2ccc(Cl)cc2)C(C(=O)OC(C)(C)C)=C(C)N1` (centres unmarked) [ST050983, tert-butyl 4-(4-chlorophenyl)-5-cyano-2-methyl-6-methylthio-1,4-dihydropyridine-3-carboxylate], the “Aβ1-40 (% of control)” value (Aβ1-40) is reported as 51.3 % of control and the “Aβ1-42 (% of control)” value (Aβ1-42) is reported as 0 % of control.
